Here are results for 37 compounds from US20080171737A1 (Wyeth, priority 2006, published 2008).

Molecules are shown by their SMILES. pIC50: −log10 of the molar value. Counter-ions that a name gives are not always drawn.

The target in the first experiment is T1, human hNET (Homo sapiens, UniProt P23975).
T1 construct: expressed in transfected cells; host or cells: MDCK-Net6 (MDCK cells stably transfected with hNET)
T1 sequence (P23975 whole entry): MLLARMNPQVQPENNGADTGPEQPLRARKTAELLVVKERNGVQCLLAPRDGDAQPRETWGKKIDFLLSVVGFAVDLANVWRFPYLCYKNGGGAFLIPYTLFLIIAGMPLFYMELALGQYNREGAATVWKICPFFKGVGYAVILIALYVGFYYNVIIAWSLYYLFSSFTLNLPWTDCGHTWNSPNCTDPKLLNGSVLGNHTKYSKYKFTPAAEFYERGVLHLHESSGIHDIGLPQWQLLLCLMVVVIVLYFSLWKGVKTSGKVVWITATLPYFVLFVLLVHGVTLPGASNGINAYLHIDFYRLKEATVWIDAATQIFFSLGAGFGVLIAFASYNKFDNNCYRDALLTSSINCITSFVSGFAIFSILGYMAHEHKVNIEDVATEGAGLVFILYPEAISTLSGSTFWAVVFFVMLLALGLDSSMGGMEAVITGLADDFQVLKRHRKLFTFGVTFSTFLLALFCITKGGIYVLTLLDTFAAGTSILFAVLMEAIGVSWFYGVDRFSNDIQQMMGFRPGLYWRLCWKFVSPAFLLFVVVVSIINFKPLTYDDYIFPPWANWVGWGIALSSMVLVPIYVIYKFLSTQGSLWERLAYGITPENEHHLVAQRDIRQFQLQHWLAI
Put plainly: Functional norepinephrine reuptake assay, Procedure B (6,000 cells/well). The class given is cell-based. The following applies: MDCK-Net6 cells, 6,000 cells/well, 16 nM 3H-norepinephrine; read-out: Procedure B hNET uptake IC50. The method, boiled down:
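MDCK cells stably expressing human NET, 6,000 cells/well, in HEPES-buffered saline pH 7.4 with ascorbic acid and 1 μM pargyline; compound preincubated 5 min at 37° C. ^3H norepinephrine uptake counted by scintillation; non-specific defined with 20 μM desipramine. IC50 from variable-slope sigmoidal nonlinear fit.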
With `O=S1(=O)C(CCCNC2CC2)Oc2ccccc2N1c1ccccc1` (stereo not shown) [Example 40, N-[3-(2,2-dioxido-1-phenyl-1H-4,2,1-benzoxathiazin-3-yl)propyl]cyclopropanamine], the pIC50 is 5.97.

With `CNCCCC1Oc2ccc(F)cc2N(c2ccccc2)S1(=O)=O` (stereo not shown) [Example 44, 3-(7-fluoro-2,2-dioxido-1-phenyl-1H-4,2,1-benzoxathiazin-3-yl)-N-methylpropan-1-amine], the pIC50 is 6.06.

Regarding `CNCCCC1Oc2cc(Cl)ccc2N(c2ccccc2)S1(=O)=O` (stereo not shown) [Example 45, 3-(6-chloro-2,2-dioxido-1-phenyl-1H-4,2,1-benzoxathiazin-3-yl)-N-methylpropan-1-amine], the negative-log IC50 (pIC50) is 6.94.

As to `CNCCCC1Oc2cc(F)ccc2N(c2ccccc2)S1(=O)=O` (stereo not shown) [Example 46, 3-(6-fluoro-2,2-dioxido-1-phenyl-1H-4,2,1-benzoxathiazin-3-yl)-N-methylpropan-1-amine], the pIC50 was 7.03.

On to `CNCCCC1Oc2c(F)cccc2N(c2ccccc2)S1(=O)=O` (stereo not shown) [Example 47, 3-(5-fluoro-2,2-dioxido-1-phenyl-1H-4,2,1-benzoxathiazin-3-yl)-N-methylpropan-1-amine], for which the negative-log IC50 (pIC50) is 6.37.

`CNCCCC1Oc2cccc(F)c2N(c2ccccc2)S1(=O)=O` (stereo not shown) [Example 48, 3-(8-fluoro-2,2-dioxido-1-phenyl-1H-4,2,1-benzoxathiazin-3-yl)-N-methylpropan-1-amine]: the pIC50 is 6.20.

As to `CNCCCC1Oc2cccc(C)c2N(c2ccccc2)S1(=O)=O` (stereo not shown) [Example 49, N-methyl-3-(8-methyl-2,2-dioxido-1-phenyl-1H-4,2,1-benzoxathiazin-3-yl)propan-1-amine], the pIC50 was 6.05.

For the compound `CNCCCC1Oc2ccc(C)cc2N(c2ccccc2)S1(=O)=O` (stereo not shown) [Example 50, N-methyl-3-(7-methyl-2,2-dioxido-1-phenyl-1H-4,2,1-benzoxathiazin-3-yl)propan-1-amine], the pIC50 is 6.94.

`CNCCCC1Oc2cc(C)ccc2N(c2ccccc2)S1(=O)=O` (stereo not shown) [Example 51, N-methyl-3-(6-methyl-2,2-dioxido-1-phenyl-1H-4,2,1-benzoxathiazin-3-yl)propan-1-amine]: the negative-log IC50 (pIC50) is 6.60.

For `CNCCCC1Oc2cc(OC)ccc2N(c2ccccc2)S1(=O)=O` (stereo not shown) [Example 52, 3-(6-methoxy-2,2-dioxido-1-phenyl-1H-4,2,1-benzoxathiazin-3-yl)-N-methylpropan-1-amine], the negative logarithm of the IC50 (pIC50) is 6.22.

Take `CNCCCC1Oc2ccc(Cl)cc2N(c2ccccc2)S1(=O)=O` (stereo not shown) [Example 53, 3-(7-chloro-2,2-dioxido-1-phenyl-1H-4,2,1-benzoxathiazin-3-yl)-N-methylpropan-1-amine]: the pIC50 was 6.73.

In the case of `CNCCCC1Oc2ccc(-c3ccccc3)cc2N(c2ccccc2)S1(=O)=O` (stereo not shown) [Example 54, 3-(2,2-dioxido-1,7-diphenyl-1H-4,2,1-benzoxathiazin-3-yl)-N-methylpropan-1-amine], the pIC50 is 6.39.

On to `CNCCCC1Oc2cc3ccccc3cc2N(c2ccccc2)S1(=O)=O` (stereo not shown) [Example 55, 3-(2,2-dioxido-1-phenyl-1H-naphtho[2,3-e][1,3,4]oxathiazin-3-yl)-N-methylpropan-1-amine hydrochloride], for which the pIC50 was 7.32.

In the case of `CNCCCC1Oc2ccccc2N(c2cccnc2)S1(=O)=O` (stereo not shown) [Example 56, 3-(2,2-dioxido-1-pyridin-3-yl-1H-4,2,1-benzoxathiazin-3-yl)-N-methylpropan-1-amine], the pIC50 was 6.46.

Turning to `CN(CCCC1Oc2ccccc2N(c2ccccc2)S1(=O)=O)Cc1ccccc1` (stereo not shown) [Example 58, N-benzyl-3-(2,2-dioxido-1-phenyl-1H-4,2,1-benzoxathiazin-3-yl)-N-methylpropan-1-amine hydrochloride], the negative logarithm of the IC50 (pIC50) was 6.09.

In the case of `CNCCCC1Sc2ccccc2N(c2ccccc2)S1(=O)=O` (stereo not shown) [Example 59, 3-(2,2-dioxido-1-phenyl-1H-2,4,1-benzodithiazin-3-yl)-N-methylpropan-1-amine Hydrochloride], the pIC50 is 6.91.

Regarding `CNCCCC1Sc2ccccc2N(c2cccc(C)c2)S1(=O)=O` (stereo not shown) [Example 60, N-methyl-3-[1-(3-methylphenyl)-2,2-dioxido-1H-2,4,1-benzodithiazin-3-yl]propan-1-amine Hydrochloride], the pIC50 is 6.33.

As for `CNCCCC1Sc2ccccc2N(c2cccc(F)c2)S1(=O)=O` (stereo not shown) [Example 61, 3-[1-(3-fluorophenyl)-2,2-dioxido-1H-2,4,1-benzodithiazin-3-yl]-N-methylpropan-1-amine hydrochloride], the pIC50 is 7.09.

On to `CNCCCC1Sc2ccccc2N(c2cccc(OC)c2)S1(=O)=O` (stereo not shown) [Example 62, 3-[1-(3-methoxyphenyl)-2,2-dioxido-1H-2,4,1-benzodithiazin-3-yl]-N-methylpropan-1-amine Hydrochloride], for which the negative-log IC50 (pIC50) is 6.47.

Turning to `CNCCCC1Sc2ccccc2N(c2ccc(C)cc2)S1(=O)=O` (stereo not shown) [Example 63, N-methyl-3-[1-(4-methylphenyl)-2,2-dioxido-1H-2,4,1-benzodithiazin-3-yl]propan-1-amine Hydrochloride], the negative logarithm of the IC50 (pIC50) is 6.81.

For the compound `CNCCCC1Sc2ccccc2N(c2ccc(F)cc2)S1(=O)=O` (stereo not shown) [Example 64, 3-[1-(4-fluorophenyl)-2,2-dioxido-1H-2,4,1-benzodithiazin-3-yl]-N-methylpropan-1-amine Hydrochloride], the pIC50 was 6.00.

With `CNCCCC1Sc2ccccc2N(c2cccc(Cl)c2)S1(=O)=O` (stereo not shown) [Example 66, 3-[1-(3-chlorophenyl)-2,2-dioxido-1H-2,4,1-benzodithiazin-3-yl]-N-methylpropan-1-amine Hydrochloride], the negative logarithm of the IC50 (pIC50) is 5.69.

As to `CNCCCC1Sc2ccccc2N(c2ccc(Cl)cc2)S1(=O)=O` (stereo not shown) [Example 67, 3-[1-(4-chlorophenyl)-2,2-dioxido-1H-2,4,1-benzodithiazin-3-yl]-N-methylpropan-1-amine Hydrochloride], the pIC50 is 5.82.

With `CNCCCC1Sc2ccccc2N(c2ccc(F)c(Cl)c2)S1(=O)=O` (stereo not shown) [Example 68, 3-[1-(3-chloro-4-fluorophenyl)-2,2-dioxido-1H-2,4,1-benzodithiazin-3-yl]-N-methylpropan-1-amine Hydrochloride], the negative-log IC50 (pIC50) is 6.33.

For the compound `CNCCCC1Oc2cc3ccccc3cc2N(c2ccc(C)cc2)S1(=O)=O` (stereo not shown) [Example 69, N-methyl-3-[1-(4-methylphenyl)-2,2-dioxido-1H-naphtho[2,3-e][1,3,4]oxathiazin-3-yl]propan-1-amine Hydrochloride], the pIC50 was 6.13.

Regarding `CNCCCC1Oc2cc3ccccc3cc2N(c2cccc(F)c2)S1(=O)=O` (stereo not shown) [Example 70, 3-[1-(3-fluorophenyl)-2,2-dioxido-1H-naphtho[2,3-e][1,3,4]oxathiazin-3-yl]-N-methylpropan-1-amine Hydrochloride], the pIC50 is 6.92.

`CNCCCC1Cc2ccccc2N(c2ccccc2F)S1(=O)=O` (stereo not shown) [Example 73, 3-[1-(2-fluorophenyl)-2,2-dioxido-3,4-dihydro-1H-2,1-benzothiazin-3-yl]-N-methylpropan-1-amine Hydrochloride]: the negative-log IC50 (pIC50) is 7.75.

`O=S1(=O)C(CCCN2CCNCC2)Oc2ccccc2N1c1ccccc1` (stereo not shown) [Example 76, 1-phenyl-3-(3-piperazin-1-ylpropyl)-1H-4,2,1-benzoxathiazine2,2-dioxide Dihydrochloride]: the pIC50 was 5.30.

Turning to `CN(C)CCCC1Oc2ccccc2N(c2ccccc2)S1(=O)=O` (stereo not shown) [Example 80, 3-(2,2-dioxido-1-phenyl-1H-4,2,1-benzoxathiazin-3-yl)-N,N-dimethylpropan-1-amine hydrochloride], the pIC50 is 5.38.

The same experiment, now with this note: MDCK-Net6 cells, 6,000 cells/well; Conc 6000 nM (6 μM); read-out: Procedure B hNET uptake (% inhibition).
With `O=S1(=O)C(CCCNC2CCC2)Oc2ccccc2N1c1ccccc1` (stereo not shown) [Example 41, N-[3-(2,2-dioxido-1-phenyl-1H-4,2,1-benzoxathiazin-3-yl)propyl]cyclobutanamine], the inhibition at 6 µM is 50%.

In the case of `O=S1(=O)C(CCCNC2CCCC2)Oc2ccccc2N1c1ccccc1` (stereo not shown) [Example 42, N-[3-(2,2-dioxido-1-phenyl-1H-4,2,1-benzoxathiazin-3-yl)propyl]cyclopentanamine], the inhibition at 6 µM worked out at 48%.

For `O=S1(=O)C(CCCNC2CCCCC2)Oc2ccccc2N1c1ccccc1` (stereo not shown) [Example 43, N-[3-(2,2-dioxido-1-phenyl-1H-4,2,1-benzoxathiazin-3-yl)propyl]cyclohexanamine], the inhibition at 6 µM is 67%.

As for `CNCCCC1Oc2ccccc2N(c2cnc3ccccc3c2)S1(=O)=O` (stereo not shown) [Example 57, 3-(2,2-dioxido-1-quinolin-3-yl-1H-4,2,1-benzoxathiazin-3-yl)-N-methylpropan-1-amine], the inhibition at 6 µM came to 41%.

Regarding `CNCCCC1Sc2ccccc2N(c2ccc(OC)cc2)S1(=O)=O` (stereo not shown) [Example 65, 3-[1-(4-methoxyphenyl)-2,2-dioxido-1H-2,4,1-benzodithiazin-3-yl]-N-methylpropan-1-amine hydrochloride], the inhibition at 6 µM is 58%.

For `O=S1(=O)C(CCN2CCCNCC2)Oc2ccccc2N1c1ccccc1` (stereo not shown) [Example 77, 3-[2-(1,4-diazepan-1-yl)ethyl]-1-phenyl-1H-4,2,1-benzoxathiazine-2,2-dioxide Dihydrochloride], the inhibition at 6 µM came to 33%.

For `O=S1(=O)C(CCN2CCCCC2)Oc2ccccc2N1c1ccccc1` (stereo not shown) [Example 78, 1-phenyl-3-(2-piperidin-1-ylethyl)-1H-4,2,1-benzoxathiazine 2,2-dioxide hydrochloride], the inhibition at 6 µM stood at 45%.

Regarding `CC1CN(CCC2Oc3ccccc3N(c3ccccc3)S2(=O)=O)CC(C)N1` (stereo not shown) [Example 79, 3-[2-(3,5-dimethylpiperazin-1-yl)ethyl]-1-phenyl-1H-4,2,1-benzoxathiazine 2,2-dioxide hydrochloride], the inhibition at 6 µM came out at 21%.

In general, pIC50 refers to the IC50 on a negative log10 scale, so that one unit is a factor of ten. Broadly, the inhibition is the percentage by which the read-out fell short of the control.
